These results are taken from patent US20260158194A1, “DRUG COATED BALLOON” (ARTERIUS LIMITED, priority 2021, published 2026).

Data set [1] in a line: Simulated tracking and deployment (ASTM F3320-18) into hydrogel mock-vessel (Examples 14-17). It counts as physicochemical. To be noted: single drug.
Experimental: In this example, a hydrogel was used to mimic the arterial tissue wall to assess the drug release profile and simulate the tracking and deployment process.
Based on the process described in ASTM F3320-18, folded balloons were pushed through a 37° C. heated anatomical model filled with PBS for 30 seconds. At the end of the track, balloons were then inflated to nominal pressure inside the hydrogel for 1 minute. The PBS inside the track was collected and replaced, and the balloon withdrawn back through the track. The PBS in the track was collected, and the coated balloon was inflated to nominal pressure for a final drug release in methanol for 5 minutes. The drug concentration in the two PBS samples and methanol sample was measured by UV-VIS. This was used to calculate the drug dose delivered to the hydrogel site.
In this example, the drug release profiles of balloons dip coated with methanol solutions containing 20% excipient Pluronic F108 and 8% of either dipyridamole or sirolimus were assessed. After coating, the balloons were dried and folded.
In this example, balloons were spray coated with a methanol solution containing 1% excipient Pluronic F108, and 2% of either dipyridamole or sirolimus. After drying and folding the balloons were sterilised.
A short description of data set [2]: Drug release profile of spray-coated balloons, PBS then methanol elution, UV (Example 4). In kind it is physicochemical. The procedure:
The technique of spray coating was introduced using a 5% solution of high molecular weight polymer PEG-PPO-PEG (Mn=14,600) in methanol. This spray coating method was used to add multiple layers of coating and ensured the correct area of the balloon was coated in a more precise fashion.
In this example, a set of experiments was conducted to assess the drug release profiles of Sirolimus and Dipyridamole. The samples were spray coated with their coating solutions with nitrogen gas at 1 bar, and 20 rotations were done (10 clockwise and 10 anticlockwise). The separation from the balloon and spray nozzle was approximately 15 cm.
The drug release profiles of both Dipyridamole and Sirolimus were determined using an excipient polymer PEG-PPO-PEG (Mn=14,600) with organic carrier solvent methanol. The coating solution quantities can be found in Table 3.
The resulting coated balloons were eluted in 8 mL of PBS for 3 minutes, before being eluted into 8 mL of methanol for 5 minutes, for full release of the coating.

For the compound `OCCN(CCO)c1nc(N2CCCCC2)c2nc(N(CCO)CCO)nc(N3CCCCC3)c2n1` [dipyridamole], the “drug lost when tracking to the site” value in data set [1] (dip coated, 20% Pluronic F108 and 8% drug) is listed as “considerably less dipyridamole than sirolimus was lost”. The “loaded drug released during deployment to the hydrogel target site” value in data set [1] (spray coated, 1% Pluronic F108 and 2% drug, sterilised) is 71.1%. In addition, the “Post-PBS reading @415 nm” value in data set [2] (8 mL PBS 3 minutes, spray coated, PEG-PPO-PEG Mn 14,600) is recorded as 0.042. Also, the “Post-Methanol reading @415 nm” value in data set [2] (8 mL methanol 5 minutes after PBS elution) is 0.087. In addition, in data set [2] (printed '5-minute elution time', from UV reading and calibration coefficient, PEG-PPO-PEG polymer), the “drug released during elution time” value is on record as 32.6%.
